Key:
[1] = test system: Huh7 cells expressing unmodified PNPLA3 I148M; assay: Incucyte growth curves, Huh7 expressing PNPLA3 I148M; format: cell-based, human; settings: 1μM or 5μM
Description: Huh7, Huh7 PNPLA3 I148M, Huh7 PNPLA3, Hep3b and LX-2 cells were seeded at a concentration of 1000 cells/well in 60 μl of growth medium on 384-well microtiter plates (Revvity, Waltham, MA, USA, PhenoPlate 384-well microplate, #6057308) and stored in a 37°C incubator with 5% CO2 and 95% humidity overnight. Next day cells were treated with DMSO as control (1% final concentration) or compound (1μM or 5μM final concentration) and cell density was recorded in the Incucyte® life cell imager (Sartorius, Göttingen, Germany) every 4 hours over a period of 5 days. Growth curves were generated by monitoring confluence over time. Proliferative capacity of PNPLA3 I148M-expressing cells was compared to control cells, and the restoration of proliferative fitness was analyzed.

[2] = molecular target: T1, PNPLA3 (Homo sapiens, UniProt Q9NST1); assay: Huh7 untagged PNPLA3 immunofluorescence on lipid droplets; format: cell-based; settings: anti-PNPLA3 IF; representative curve, Figure 3E
T1 construct: host or cells: Huh7
T1 sequence (Q9NST1 1-481): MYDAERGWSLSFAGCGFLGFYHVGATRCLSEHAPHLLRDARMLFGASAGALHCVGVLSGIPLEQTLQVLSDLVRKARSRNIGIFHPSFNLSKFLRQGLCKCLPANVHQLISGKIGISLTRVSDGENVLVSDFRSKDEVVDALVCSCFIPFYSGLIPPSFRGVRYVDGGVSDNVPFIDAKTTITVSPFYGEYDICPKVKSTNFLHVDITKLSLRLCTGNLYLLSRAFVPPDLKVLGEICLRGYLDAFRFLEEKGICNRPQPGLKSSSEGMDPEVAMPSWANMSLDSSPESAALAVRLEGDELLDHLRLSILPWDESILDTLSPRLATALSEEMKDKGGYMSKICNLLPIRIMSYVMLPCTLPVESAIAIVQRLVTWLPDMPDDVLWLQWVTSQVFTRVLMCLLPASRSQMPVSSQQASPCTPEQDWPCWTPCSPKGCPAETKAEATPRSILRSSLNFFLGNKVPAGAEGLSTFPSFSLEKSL
Description: Even though C-terminal tagging is reported not to interfere with PNPLA3 localization,[20] we established an assay to exclude the possibility that C-terminal tagging of PNPLA3 with tagRFP could alter PNPLA3 response to NUV-244 on lipid droplets. For this we generated Huh7 cell lines that express untagged variants of PNPLA3 I148M or PNPLA3 WT and visualized PNPLA3 on lipid droplets by immunofluorescence (Figures 3C, 3D, and S3A).
Cells were fixed with 4% paraformaldehyde for 15 minutes at room temperature. Cells were blocked with 0.2 M glycine, 0.1 mg/mL saponin, and 30 mg/mL bovine serum albumin (BSA) (all Sigma Aldrich) in PBS for 1 hour. Cells were washed 1x with washing buffer (0,1 mg/ml saponin + 1 mg/ml Bovine serum albumin) using a Blue Washer (Blue Cat Bio). Mouse anti-human ADPN (PNPLA3, C-8, #sc-390252, Santa Cruz) and rabbit anti-human PNPLA2 (Sigma Aldrich, #HPA055173-25UL) primary antibodies and appropriate secondary antibodies conjugated with Alexa-Fluor 647 (Jackson ImmunoResearch) were used. […]
Images were acquired by an Opera Phenix confocal spinning disc microscope system (Revvity, Waltham, MA, USA) with a 20x or 40x water objective at 405 nm (Hoechst), 488 nm (BODIPY) and 647 nm. Quantification was carried out with the Harmony (Revvity, Waltham, MA, USA) or MetaXpress software (Molecular Devices). […]

EC50 [2]: 341 nM
SMILES: Cc1cccc(Cc2nc(C)c(C(=O)Nc3cc(O)ccc3Cl)s2)c1 [NUV-244]
proliferative fitness of Huh7 cells expressing PNPLA3 I148M [1]: restored

From PMC12049818, “Identification of NUV-244 as a PNPLA3 I148M degrading small molecule” (iScience, 2025)
